From the supplement of paper PMC11424490

Experiments:
NCI-H2122 [1] = experiment: combination cScore with sotorasib (Bliss gap around IC50) (%PoC); higher = stronger additive effect
Experimental: (§1)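 Combination screen of 179 inhibitors with the KRAS G12C inhibitor sotorasib (AMG510) in dose matrices, CellTiter-Glo readout in NCI-H2122 (72 h), SW837 (144 h) and NCI-H358 cells. The cScore is the mean Bliss-independence gap (expected minus observed viability, in %PoC) over a 3x3 field around the IC50s of both drugs. Positive means additive, and >~10 is stated as clear additive.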

SW837 [2] = experiment: as above
Experimental: as §1

NCI-H2122 [3] = experiment: combination cScore with adagrasib (Bliss gap around IC50) (%PoC); higher = stronger additive effect
Outline: (§2)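 The score averages the gap between expected and measured viability under Bliss independence, taken over a field around the IC50 of each single agent or, where an IC50 was not reached, at the highest concentrations. Viability came from CellTiter-Glo luminescence, normalised to vehicle wells as percent of control and fitted with four-parameter curves. NCI-H2122, NCI-H358 and SW837 cells were dosed in concentration matrices 24 h after seeding and grown for 72 h, or 144 h for SW837.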

SW837 [4] = experiment: as above
Outline: as §2

Cc1ccc(NC(=O)c2ccnc(C(F)(F)F)c2)cc1-c1cc(OCCO)nc(N2CCOCC2)c1 [LXH-254] + C=CC(=O)N1CCN(c2nc(=O)n(-c3c(C)ccnc3C(C)C)c3nc(-c4c(O)cccc4F)c(F)cc23)[C@@H](C)C1 [sotorasib]
combination cScore with sotorasib (NCI-H2122 [1]): 7.11 | combination cScore with sotorasib (SW837 [2]): 5.53

C[C@]1(c2nc3c(C(N)=O)cccc3[nH]2)CCCN1 [Veliparib] + C=CC(=O)N1CCN(c2nc(=O)n(-c3c(C)ccnc3C(C)C)c3nc(-c4c(O)cccc4F)c(F)cc23)[C@@H](C)C1 [sotorasib]
combination cScore with sotorasib (NCI-H2122 [1]): 18.6 | combination cScore with sotorasib (SW837 [2]): 7.52

Cc1ccc(NC(=O)c2ccc(CN3CCN(C)CC3)cc2)cc1Nc1nc(-c2cccnc2)cs1 [Masitinib] + C=CC(=O)N1CCN(c2nc(=O)n(-c3c(C)ccnc3C(C)C)c3nc(-c4c(O)cccc4F)c(F)cc23)[C@@H](C)C1 [sotorasib]
combination cScore with sotorasib (NCI-H2122 [1]): 17.9 | combination cScore with sotorasib (SW837 [2]): -1.47

Nc1nc2[nH]cc(CCc3ccc(C(=O)N[C@@H](CCC(=O)O)C(=O)O)cc3)c2c(=O)[nH]1 [Pemetrexed] + C=CC(=O)N1CCN(c2nc(=O)n(-c3c(C)ccnc3C(C)C)c3nc(-c4c(O)cccc4F)c(F)cc23)[C@@H](C)C1 [sotorasib]
combination cScore with sotorasib (NCI-H2122 [1]): 1.36 | combination cScore with sotorasib (SW837 [2]): 16.4

CCN(CC)CCNC(=O)c1c(C)[nH]c(/C=C2\C(=O)Nc3ccc(F)cc32)c1C [Sunitinib] + C=CC(=O)N1CCN(c2nc(=O)n(-c3c(C)ccnc3C(C)C)c3nc(-c4c(O)cccc4F)c(F)cc23)[C@@H](C)C1 [sotorasib]
combination cScore with sotorasib (NCI-H2122 [1]): 10.9 | combination cScore with sotorasib (SW837 [2]): 23

O=c1[nH]cc(F)c(=O)[nH]1 [Fluorouracil (5-FU)] + C=CC(=O)N1CCN(c2nc(=O)n(-c3c(C)ccnc3C(C)C)c3nc(-c4c(O)cccc4F)c(F)cc23)[C@@H](C)C1 [sotorasib]
combination cScore with sotorasib (NCI-H2122 [1]): 2.26 | combination cScore with sotorasib (SW837 [2]): 15.4

O=C(O)CCCCC(CCSCc1ccccc1)SCc1ccccc1 (stereo unspecified) [CPI-613] + C=CC(=O)N1CCN(c2nc(=O)n(-c3c(C)ccnc3C(C)C)c3nc(-c4c(O)cccc4F)c(F)cc23)[C@@H](C)C1 [sotorasib]
combination cScore with sotorasib (NCI-H2122 [1]): 19 | combination cScore with sotorasib (SW837 [2]): -5.35

Cc1cn(-c2cc(NC(=O)c3ccc(C)c(Nc4nccc(-c5cccnc5)n4)c3)cc(C(F)(F)F)c2)cn1 [Nilotinib] + C=CC(=O)N1CCN(c2nc(=O)n(-c3c(C)ccnc3C(C)C)c3nc(-c4c(O)cccc4F)c(F)cc23)[C@@H](C)C1 [sotorasib]
combination cScore with sotorasib (NCI-H2122 [1]): 6.86 | combination cScore with sotorasib (SW837 [2]): 14.3

O=[N+]([O-])c1ccc(NCCNc2ncc(-c3ncc[nH]3)c(-c3ccc(Cl)cc3Cl)n2)nc1 + C=CC(=O)N1CCN(c2nc(=O)n(-c3c(C)ccnc3C(C)C)c3nc(-c4c(O)cccc4F)c(F)cc23)[C@@H](C)C1 [sotorasib]
combination cScore with sotorasib (NCI-H2122 [1]): -9.14 | combination cScore with sotorasib (SW837 [2]): 3.71

O=C(Cc1ccccc1)Nc1nnc(CCSCCc2nnc(NC(=O)Cc3ccccc3)s2)s1 [BPTES] + C=CC(=O)N1CCN(c2nc(=O)n(-c3c(C)ccnc3C(C)C)c3nc(-c4c(O)cccc4F)c(F)cc23)[C@@H](C)C1 [sotorasib]
combination cScore with sotorasib (NCI-H2122 [1]): 4.36 | combination cScore with sotorasib (SW837 [2]): -3.09

N[C@@H](Cc1ccc(N(CCCl)CCCl)cc1)C(=O)O [Melphalan] + C=CC(=O)N1CCN(c2nc(=O)n(-c3c(C)ccnc3C(C)C)c3nc(-c4c(O)cccc4F)c(F)cc23)[C@@H](C)C1 [sotorasib]
combination cScore with sotorasib (NCI-H2122 [1]): 2.92 | combination cScore with sotorasib (SW837 [2]): 4.26

CCN1CCN(c2ccc(Nc3cc(N(C)C(=O)Nc4c(Cl)c(OC)cc(OC)c4Cl)ncn3)cc2)CC1 [BGJ398] + C=CC(=O)N1CCN(c2nc(=O)n(-c3c(C)ccnc3C(C)C)c3nc(-c4c(O)cccc4F)c(F)cc23)[C@@H](C)C1 [sotorasib]
combination cScore with sotorasib (NCI-H2122 [1]): 2.52 | combination cScore with sotorasib (SW837 [2]): 12.1

C[C@]12CC[C@@H]3c4ccc(O)cc4C[C@@H](CCCCCCCCC[S+]([O-])CCCC(F)(F)C(F)(F)F)[C@H]3[C@@H]1CC[C@@H]2O (stereo partly specified) [Fulvestrant] + C=CC(=O)N1CCN(c2nc(=O)n(-c3c(C)ccnc3C(C)C)c3nc(-c4c(O)cccc4F)c(F)cc23)[C@@H](C)C1 [sotorasib]
combination cScore with sotorasib (NCI-H2122 [1]): 8.41 | combination cScore with sotorasib (SW837 [2]): 1.95

CCCC(CCC)C(=O)O [Valproic acid] + C=CC(=O)N1CCN(c2nc(=O)n(-c3c(C)ccnc3C(C)C)c3nc(-c4c(O)cccc4F)c(F)cc23)[C@@H](C)C1 [sotorasib]
combination cScore with sotorasib (NCI-H2122 [1]): -1.96 | combination cScore with sotorasib (SW837 [2]): -2.1

c1ccc(-c2nn3c(c2-c2ccnc4cc(OCCN5CCOCC5)ccc24)CCC3)nc1 + C=CC(=O)N1CCN(c2nc(=O)n(-c3c(C)ccnc3C(C)C)c3nc(-c4c(O)cccc4F)c(F)cc23)[C@@H](C)C1 [sotorasib]
combination cScore with sotorasib (NCI-H2122 [1]): 8.94 | combination cScore with sotorasib (SW837 [2]): 8.58

CNC(=O)c1cc(Oc2ccc(NC(=O)Nc3ccc(Cl)c(C(F)(F)F)c3)cc2)ccn1 [Sorafenib] + C=CC(=O)N1CCN(c2nc(=O)n(-c3c(C)ccnc3C(C)C)c3nc(-c4c(O)cccc4F)c(F)cc23)[C@@H](C)C1 [sotorasib]
combination cScore with sotorasib (NCI-H2122 [1]): 4.75 | combination cScore with sotorasib (SW837 [2]): -8.41

NC(=O)Nc1cc(-c2cccc(F)c2)sc1C(=O)N[C@H]1CCCNC1 [AZD-7762] + C=CC(=O)N1CCN(c2nc(=O)n(-c3c(C)ccnc3C(C)C)c3nc(-c4c(O)cccc4F)c(F)cc23)[C@@H](C)C1 [sotorasib]
combination cScore with sotorasib (NCI-H2122 [1]): 2.45 | combination cScore with sotorasib (SW837 [2]): 6.36

CN[C@@H](C)C(=O)N[C@H](C(=O)N1CCC[C@H]1c1nc(C(=O)c2ccc(F)cc2)cs1)C1CCCCC1 [LCL161] + C=CC(=O)N1CCN(c2nc(=O)n(-c3c(C)ccnc3C(C)C)c3nc(-c4c(O)cccc4F)c(F)cc23)[C@@H](C)C1 [sotorasib]
combination cScore with sotorasib (NCI-H2122 [1]): 2.3 | combination cScore with sotorasib (SW837 [2]): -3.76

C[C@]1(c2nc3c(C(N)=O)cccc3[nH]2)CCCN1 [Veliparib] + C=C(F)C(=O)N1CCN(c2nc(OC[C@@H]3CCCN3C)nc3c2CCN(c2cccc4cccc(Cl)c24)C3)C[C@@H]1CC#N [adagrasib]
combination cScore with adagrasib (NCI-H2122 [3]): -0.59 | combination cScore with adagrasib (SW837 [4]): 5.64

O=C(O)C(=O)O.[NH-][C@@H]1CCCC[C@H]1[NH-].[Pt+2] [Oxaliplatin] + C=C(F)C(=O)N1CCN(c2nc(OC[C@@H]3CCCN3C)nc3c2CCN(c2cccc4cccc(Cl)c24)C3)C[C@@H]1CC#N [adagrasib]
combination cScore with adagrasib (NCI-H2122 [3]): 5.21 | combination cScore with adagrasib (SW837 [4]): -1.13

CN(C)CCCC(=O)Nc1n[nH]c2nnc(-c3ccccc3)cc12 + C=C(F)C(=O)N1CCN(c2nc(OC[C@@H]3CCCN3C)nc3c2CCN(c2cccc4cccc(Cl)c24)C3)C[C@@H]1CC#N [adagrasib]
combination cScore with adagrasib (NCI-H2122 [3]): -12.3 | combination cScore with adagrasib (SW837 [4]): -2.5

COc1cc(OC2CCN(C)CC2)ccc1Nc1ncc2c(n1)n(C1CCCC1)c(=O)n2C [AZ3146] + C=C(F)C(=O)N1CCN(c2nc(OC[C@@H]3CCCN3C)nc3c2CCN(c2cccc4cccc(Cl)c24)C3)C[C@@H]1CC#N [adagrasib]
combination cScore with adagrasib (NCI-H2122 [3]): -1.25 | combination cScore with adagrasib (SW837 [4]): 9.79

Cc1ccc(NC(=O)c2ccc(CN3CCN(C)CC3)cc2)cc1Nc1nc(-c2cccnc2)cs1 [Masitinib] + C=C(F)C(=O)N1CCN(c2nc(OC[C@@H]3CCCN3C)nc3c2CCN(c2cccc4cccc(Cl)c24)C3)C[C@@H]1CC#N [adagrasib]
combination cScore with adagrasib (NCI-H2122 [3]): 5.2 | combination cScore with adagrasib (SW837 [4]): -2.55

Cc1ncc([N+](=O)[O-])n1CCOC(=O)NC(Nc1ncccn1)C(Cl)(Cl)Cl (stereo unspecified) [Apcin] + C=C(F)C(=O)N1CCN(c2nc(OC[C@@H]3CCCN3C)nc3c2CCN(c2cccc4cccc(Cl)c24)C3)C[C@@H]1CC#N [adagrasib]
combination cScore with adagrasib (NCI-H2122 [3]): 2.71 | combination cScore with adagrasib (SW837 [4]): -0.93

C/C=C1\NC(=O)[C@H]2CSSCC/C=C/[C@H](CC(=O)N[C@H](C(C)C)C(=O)N2)OC(=O)[C@H](C(C)C)NC1=O [Romidepsin] + C=C(F)C(=O)N1CCN(c2nc(OC[C@@H]3CCCN3C)nc3c2CCN(c2cccc4cccc(Cl)c24)C3)C[C@@H]1CC#N [adagrasib]
combination cScore with adagrasib (NCI-H2122 [3]): -1.65 | combination cScore with adagrasib (SW837 [4]): 6.42

C[C@H](Cc1ccc(O)c(O)c1)[C@@H](C)Cc1ccc(O)c(O)c1 [Masoprocol] + C=C(F)C(=O)N1CCN(c2nc(OC[C@@H]3CCCN3C)nc3c2CCN(c2cccc4cccc(Cl)c24)C3)C[C@@H]1CC#N [adagrasib]
combination cScore with adagrasib (NCI-H2122 [3]): 1.34 | combination cScore with adagrasib (SW837 [4]): -3.46

CO[C@H]1/C=C/C[C@H](C)[C@@H](C)S(=O)(=O)NC(=O)c2ccc3c(c2)N(C[C@@H]2CC[C@H]21)C[C@@]1(CCCc2cc(Cl)ccc21)CO3 [AMG176] + C=C(F)C(=O)N1CCN(c2nc(OC[C@@H]3CCCN3C)nc3c2CCN(c2cccc4cccc(Cl)c24)C3)C[C@@H]1CC#N [adagrasib]
combination cScore with adagrasib (NCI-H2122 [3]): 5.81 | combination cScore with adagrasib (SW837 [4]): -0.8

COc1cc(Nc2ncc3c(n2)-c2ccc(Cl)cc2C(c2c(F)cccc2OC)=NC3)ccc1C(=O)O [MLN8237] + C=C(F)C(=O)N1CCN(c2nc(OC[C@@H]3CCCN3C)nc3c2CCN(c2cccc4cccc(Cl)c24)C3)C[C@@H]1CC#N [adagrasib]
combination cScore with adagrasib (NCI-H2122 [3]): -0.97 | combination cScore with adagrasib (SW837 [4]): 4.72
